Our source for the MIC values is US10919916B2, “Boron-containing small molecules” (Bill & Melinda Gates Foundation, priority 2016, dated 2021).

Assay [1] relates to Staphylococcus aureus, MRSA (ATCC 33591). Description: Antibacterial MIC assay (microbroth dilution, CLSI). The format is cell-based. Conditions: read-out: MIC Staphylococcus aureus, MRSA (ATCC 33591). From the text: (§1) All MIC testing of bacteria followed the Clinical and Laboratory Standards Institute (CLSI) guidelines for antimicrobial testing of aerobic bacteria (Methods for Dilution Antimicrobial Susceptibility Tests for Bacteria that Grow Aerobically; Approved Standard—Tenth Edition, M07-A10; Performance Standards for Antimicrobial Susceptibility Testing; Twenty-fifth Informational Supplement, M100-S25).
(§2) Briefly, the microbroth dilution MIC method was used to quantitatively measure the in vitro antibacterial activity of a compound against a given bacterial isolate. The following bacterial strains were evaluated: Staphylococcus aureus, MRSA (ATCC 33591) and Streptococcus pneumoniae (ATCC 49619). Bacteria were grown in cation-adjusted Mueller-Hinton broth, with additions as required per species growth requirements (e.g. 3% lysed horse blood for fastidious organisms such as S. pneumoniae). A direct colony suspension in saline was prepared from colonies on an overnight agar plate to achieve a turbidity equivalent to 0.5 McFarland standard, which was subsequently diluted into the assay plate to achieve 5×10^5 CFU/mL. Assays plates were prepared by 2-fold dilution of compound across the plate and included a positive growth control.
On the technique in general: Broth dilution looks for growth in wells or tubes with falling amounts of substance.

Assay [2] deals with Streptococcus pneumoniae (ATCC 49619). The assay is described as above. The format is cell-based.
Excerpt: as §1
as §2, with “The following bacterial strains were evaluated: Staphylococcus aureus, MRSA (ATCC 33591) and Streptococcus pneumoniae (ATCC 49619).” left out

Where [3] appears, read: ATCC49619, read-out: MIC Streptococcus pneumoniae (ATCC 49619).
[4] abbreviates: microbroth dilution, cation-adjusted Mueller-Hinton broth, 35° C. for 16-20 hours.
Setting [5] is: ATCC49619, microbroth dilution, 3% lysed horse blood, 35° C. for 16-20 hours, read-out: MIC Streptococcus pneumoniae (ATCC 49619).

Converted amounts (≈) assume the structure as drawn. Like-named read-outs stand apart in the source and are kept apart here.

As for `C=C[C@]1(C)C[C@@H](OC(=O)CNc2ccc3c(c2)B(O)OC3CN)[C@]2(C)[C@H](C)CC[C@]3(CCC(=O)[C@H]32)[C@@H](C)[C@@H]1O` (stereo partly drawn) [Compound 52, (3aR,4R,5R,7S,8S,9R,9aS,12R)-8-hydroxy-4,7,9,12-tetramethyl-3-oxo-7-vinyldecahydro-4,9a-propanocyclopenta[8]annulen-5-yl (3-(aminomethyl)-1-hydroxy-1,3-dihydrobenzo[c][1,2]oxaborol-6-yl)glycinate], the MIC in assay [1] and in assay [2] (setting [3]) was 0.5 to 2 µg/mL (≈ 0.929 to 3.71 µM) in each case.

In the case of `C=C[C@]1(C)C[C@@H](OC(=O)CNc2ccc3c(c2F)B(O)OC3)[C@]2(C)[C@H](C)CC[C@]3(CCC(=O)[C@H]32)[C@@H](C)[C@@H]1O` [Compound 54, (3aR,4R,5R,7S,8S,9R,9aS,12R)-8-hydroxy-4,7,9,12-tetramethyl-3-oxo-7-vinyldecahydro-4,9a-propanocyclopenta[8]annulen-5-yl (7-fluoro-1-hydroxy-1,3-dihydrobenzo[c][1,2]oxaborol-6-yl)glycinate], the results for the minimum inhibitory concentration (MIC) in assay [1] and in assay [2] (setting [3]) were less than 0.25 µg/mL and 0.5 to 2 µg/mL (≈ 0.948 to 3.79 µM), respectively.

With `C=C[C@]1(C)C[C@@H](OC(=O)COC(=O)Nc2ccc3c(c2F)B(O)OC3)[C@]2(C)[C@H](C)CC[C@]3(CCC(=O)[C@H]32)[C@@H](C)[C@@H]1O` [Compound 55, (3aR,4R,5R,7S,8S,9R,9aS,12R)-8-hydroxy-4,7,9,12-tetramethyl-3-oxo-7-vinyldecahydro-4,9a-propanocyclopenta[8]annulen-5-yl 2-(((7-fluoro-1-hydroxy-1,3-dihydrobenzo[c][1,2]oxaborol-6-yl)carbamoyl)oxy)acetate], the minimal inhibitory concentration (MIC) in assay [1] and in assay [2] (setting [3]) was 0.5 to 2 µg/mL (≈ 0.875 to 3.5 µM) in each case.

Regarding `C=C[C@]1(C)C[C@@H](OC(=O)NCc2ccc3c(c2)B(O)OC3)[C@]2(C)[C@H](C)CC[C@]3(CCC(=O)[C@H]32)[C@@H](C)[C@@H]1O` [Compound 56, (3aR,4R,5R,7S,8S,9R,9aS,12R)-8-hydroxy-4,7,9,12-tetramethyl-3-oxo-7-vinyldecahydro-4,9a-propanocyclopenta[8]annulen-5-yl ((1-hydroxy-1,3-dihydrobenzo[c][1,2]oxaborol-6-yl)methyl) carbamate], the MIC – broadly, the lowest concentration that inhibits growth of the organism – in assay [1] (setting [4]) was less than 0.25 µg/mL; in assay [2] (setting [5]), 0.5 to 2 µg/mL (≈ 0.981 to 3.93 µM).

In the case of `C=C[C@]1(C)C[C@@H](OC(=O)NCc2ccc3c(c2F)B(O)OC3)[C@]2(C)[C@H](C)CC[C@]3(CCC(=O)[C@H]32)[C@@H](C)[C@@H]1O` [Compound 57, (3aR,4R,5R,7S,8S,9R,9aS,12R)-8-hydroxy-4,7,9,12-tetramethyl-3-oxo-7-vinyldecahydro-4,9a-propanocyclopenta[8]annulen-5-yl ((7-fluoro-1-hydroxy-1,3-dihydrobenzo[c][1,2]oxaborol-6-yl)methyl)carbamate], the minimum inhibitory concentration (MIC) in assay [1] was less than 0.25 µg/mL; in assay [2] (setting [3]) it was 0.5 to 2 µg/mL (≈ 0.948 to 3.79 µM).

Turning to `C=C[C@]1(C)C[C@@H](OC(=O)CNCc2ccc3c(c2)B(O)OC3)[C@]2(C)[C@H](C)CC[C@]3(CCC(=O)[C@H]32)[C@@H](C)[C@@H]1O` [Compound 59, (3aR,4R,5R,7S,8S,9R,9aS,12R)-8-hydroxy-4,7,9,12-tetramethyl-3-oxo-7-vinyldecahydro-4,9a-propanocyclopenta[8]annulen-5-yl ((1-hydroxy-1,3-dihydrobenzo[c][1,2]oxaborol-6-yl)methyl)glycinate], the figures for the MIC in assay [1] and in assay [2] (setting [3]) were 0.5 to 2 µg/mL (≈ 0.955 to 3.82 µM) and 4 to 32 µg/mL (≈ 7.64 to 61.1 µM), respectively.

Consider `C=C[C@]1(C)C[C@@H](OC(=O)CNCc2ccc3c(c2)B(O)OC3(C)C)[C@]2(C)[C@H](C)CC[C@]3(CCC(=O)[C@H]32)[C@@H](C)[C@@H]1O` [Compound 60, (3aR,4R,5R,7S,8S,9R,9aS,12R)-8-hydroxy-4,7,9,12-tetramethyl-3-oxo-7-vinyldecahydro-4,9a-propanocyclopenta[8]annulen-5-yl ((1-hydroxy-3,3-dimethyl-1,3-dihydrobenzo[c][1,2]oxaborol-6-yl)methyl)glycinate], for which the MIC in assay [1] was 0.5 to 2 µg/mL (≈ 0.907 to 3.63 µM); in assay [2] (setting [3]) it was 4 to 32 µg/mL (≈ 7.25 to 58 µM).

For `C=C[C@]1(C)C[C@@H](OC(=O)CSc2ccc3c(c2)B(O)OC3)[C@]2(C)[C@H](C)CC[C@]3(CCC(=O)[C@H]32)[C@@H](C)[C@@H]1O` [Compound 61, (3aR,4R,5R,7S,8S,9R,9aS,12R)-8-hydroxy-4,7,9,12-tetramethyl-3-oxo-7-vinyldecahydro-4,9a-propanocyclopenta[8]annulen-5-yl 2-((1-hydroxy-1,3-dihydrobenzo[c][1,2]oxaborol-6-yl)thio)acetate], the minimal inhibitory concentration (MIC) in assay [1] and in assay [2] (setting [3]) was less than 0.25 µg/mL throughout.

Turning to `C=C[C@]1(C)C[C@@H](OC(=O)C[S@@+]([O-])c2ccc3c(c2)B(O)OC3)[C@]2(C)[C@H](C)CC[C@]3(CCC(=O)[C@H]32)[C@@H](C)[C@@H]1O` [Compound 62, (3aR,4R,5R,7S,8S,9R,9aS,12R)-8-hydroxy-4,7,9,12-tetramethyl-3-oxo-7-vinyldecahydro-4,9a-propanocyclopenta[8]annulen-5-yl2-((R)-(1-hydroxy-1,3-dihydrobenzo[c][1,2]oxaborol-6-yl)sulfinyl)acetate], the minimum inhibitory concentration (MIC) in assay [1] was less than 0.25 µg/mL; in assay [2] (setting [3]) it was 0.5 to 2 µg/mL (≈ 0.922 to 3.69 µM).

Regarding `C=C[C@]1(C)C[C@@H](OC(=O)C[S@+]([O-])c2ccc3c(c2)B(O)OC3)[C@]2(C)[C@H](C)CC[C@]3(CCC(=O)[C@H]32)[C@@H](C)[C@@H]1O` [Compound 63, (3aR,4R,5R,7S,8S,9R,9aS,12R)-8-hydroxy-4,7,9,12-tetramethyl-3-oxo-7-vinyldecahydro-4,9a-propanocyclopenta[8]annulen-5-yl 2-((S)-(1-hydroxy-1,3-dihydrobenzo[c][1,2]oxaborol-6-yl)sulfinyl)acetate], the MIC in assay [1] was 0.5 to 2 µg/mL (≈ 0.922 to 3.69 µM); in assay [2] (setting [3]), 4 to 32 µg/mL (≈ 7.37 to 59 µM).

Turning to `C=C[C@]1(C)C[C@@H](OC(=O)CS(=O)(=O)c2ccc3c(c2)B(O)OC3)[C@]2(C)[C@H](C)CC[C@]3(CCC(=O)[C@H]32)[C@@H](C)[C@@H]1O` [Compound 64, (3aR,4R,5R,7S,8S,9R,9aS,12R)-8-hydroxy-4,7,9,12-tetramethyl-3-oxo-7-vinyldecahydro-4,9a-propanocyclopenta[8]annulen-5-yl 2-((1-hydroxy-1,3-dihydrobenzo[c][1,2]oxaborol-6-yl)sulfonyl)acetate], the MIC in assay [1] was less than 0.25 µg/mL; in assay [2] (setting [3]), 0.5 to 2 µg/mL (≈ 0.895 to 3.58 µM).

For `C=C[C@]1(C)C[C@@H](OC(=O)CSc2ccc3c(c2F)B(O)OC3)[C@]2(C)[C@H](C)CC[C@]3(CCC(=O)[C@H]32)[C@@H](C)[C@@H]1O` [Compound 65, (3aR,4R,5R,7S,8S,9R,9aS,12R)-8-hydroxy-4,7,9,12-tetramethyl-3-oxo-7-vinyldecahydro-4,9a-propanocyclopenta[8]annulen-5-yl 2-((7-fluoro-1-hydroxy-1,3-dihydrobenzo[c][1,2]oxaborol-6-yl)thio)acetate], the MIC was less than 0.25 µg/mL in assay [1] and 0.5 to 2 µg/mL (≈ 0.918 to 3.67 µM) in assay [2] (setting [3]).

Consider `C=C[C@]1(C)C[C@@H](OC(=O)C[S@+]([O-])c2ccc3c(c2F)B(O)OC3)[C@]2(C)[C@H](C)CC[C@]3(CCC(=O)[C@H]32)[C@@H](C)[C@@H]1O` [Compound 66, (3aR,4R,5R,7S,8S,9R,9aS,12R)-8-hydroxy-4,7,9,12-tetramethyl-3-oxo-7-vinyldecahydro-4,9a-propanocyclopenta[8]annulen-5-yl 2-((S)-(7-fluoro-1-hydroxy-1,3-dihydrobenzo[c][1,2]oxaborol-6-yl)sulfinyl)acetate], for which the minimum inhibitory concentration (MIC) in assay [1] lay within 0.5 to 2 µg/mL (≈ 0.892 to 3.57 µM); in assay [2] (setting [3]) it was 4 to 32 µg/mL (≈ 7.14 to 57.1 µM).

Turning to `C=C[C@]1(C)C[C@@H](OC(=O)C[S@@+]([O-])c2ccc3c(c2F)B(O)OC3)[C@]2(C)[C@H](C)CC[C@]3(CCC(=O)[C@H]32)[C@@H](C)[C@@H]1O` [Compound 67, (3aR,4R,5R,7S,8S,9R,9aS,12R)-8-hydroxy-4,7,9,12-tetramethyl-3-oxo-7-vinyldecahydro-4,9a-propanocyclopenta[8]annulen-5-yl 2-((R)-(7-fluoro-1-hydroxy-1,3-dihydrobenzo[c][1,2]oxaborol-6-yl)sulfinyl)acetate], the MIC was less than 0.25 µg/mL in assay [1] and 0.5 to 2 µg/mL (≈ 0.892 to 3.57 µM) in assay [2] (setting [3]).

Take `C=C[C@]1(C)C[C@@H](OC(=O)COc2ccc3c(c2F)B(O)OCC3)[C@]2(C)[C@H](C)CC[C@]3(CCC(=O)[C@H]32)[C@@H](C)[C@@H]1O` [Compound 68, (3aR,4R,5R,7S,8S,9R,9aS,12R)-8-hydroxy-4,7,9,12-tetramethyl-3-oxo-7-vinyldecahydro-4,9a-propanocyclopenta[8]annulen-5-yl 2-((8-fluoro-1-hydroxy-3,4-dihydro-1H-benzo[c][1,2]oxaborinin-7-yl)oxy)acetate]: the minimum inhibitory concentration (MIC) was less than 0.25 µg/mL in assay [1] (setting [4]) and 0.5 to 2 µg/mL (≈ 0.922 to 3.69 µM) in assay [2] (setting [5]).
